Data published in patent US20040023884A1, “Biologically active peptides from functional domains of bactericidal/permeability-increasing protein and uses thereof” (priority 1993, published 2004).
Ends that are not written are not given here.

B1: C1,C5: unresolved mixture of CNBr fragments of rBPI23, residues 1-56 and 112-170 (protein)
chain 1: MRENMARGPCNAPRWVSLMVLVAIGTAVTAAVNPGVVVRISQKGLDYASQQGTAAL
chain 2: SNANIKISGKWKAQKRFLKMSGNFDLSIEGMSISADLKLGSNPTSGKPTITCSSCSSHI
modifications: non-natural residues
B2: A6a: Asp-N fragment of rBPI23, residues 116-193 (protein)
chain: IKISGKWKAQKRFLKMSGNFDLSIEGMSISADLKLGSNPTSGKPTITCSSCSSHINSVHVHISKSKVGWLIQLFHKKI

Legend:
E. coli 0113 LPS = test: Limulus Amoebocyte Lysate (LAL) inhibition assay; assay type: biochemical
Method: BPI proteolytic fragments produced according to Example 1 were subjected to a Limulus Amoebocyte Lysate (LAL) inhibition assay to determine LPS binding properties of these fragments. Specifically, each of the fragments were mixed in Eppendorf tubes with a fixed concentration of E. coli 0113 LPS (4 ng/mL final concentration) and incubated at 37° C. for 3 hours with occasional shaking. Addition controls comprising rBPI23 at 0.05 μg/mL were also tested. Following incubation, 360 μL of Dulbecco's phosphate buffered saline (D-PBS; Grand Island Biological Co. (GIBCO), Long Island, N.Y.) were added per tube to obtain an LPS concentration of 200 pg/mL for the LAL assay. Each sample was then transferred into Immulon II strips (Dynatech, Chantilly, Va.) in volumes of 50 μl per well.
Limulus amoebocyte Lysate (Quantitative Chromogenic LAL kit, Whitaker Bioproducts, Inc., Walkersville, Md.) was added at 50 μL per well and the wells were incubated at room temperature for 25 minutes. Chromogenic substrate was then added at a volume of 100 μL per well and was well mixed. After incubation for 20 to 30 minutes at room temperature, the reaction was stopped with addition of 100 μL of 25% (v/v) acetic acid. Optical density at 405 nm was then measured in a multiplate reader (Model Vmax, […], Menlo Park, Calif.) with the results shown in FIG. 2 in terms of percent inhibition of LPS. In this Figure, the filled circle represents rBPI23; the open circle represents Asp-N fragment A3; the x represents Asp-N fragment A2, the filled square represents Asp-N fragment A4; the filled triangle represents Asp-N fragment A1A2; the open square represents Asp-N fragment A6a; the small open triangle represents CNBr fragment C3; and the small filled square represents CNBr fragment C1/C5.

[1] = 3H-heparin binding assay (affinity and capacity); settings: for cpm ^3H-Heparin bound: 100 picomoles of each fragment per well, saturating 3H-heparin 20 μg/mL, mean of duplicate wells ± range; for Heparin Capacity: heparin bound at saturation; for Kd: read-out: Heparin Affinity; for HEPCAP (x Fold change in activity): heparin binding capacity
Method in brief: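 Bound 3H-heparin was counted by liquid scintillation after 1 h incubation at 4 °C with fragments immobilised on PVDF-bottomed wells, then washing in blocking buffer. Signal was corrected for BSA-related background, and varying amounts of rBPI23 were used as positive control.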

[2] = tested on: rough mutant E. coli J5 bacteria; test: Radial diffusion bactericidal assay, E. coli J5; assay type: cell-based; settings: for pmol added to well to achieve a 30 mm^2 bactericidal zone, E. coli J5: radial diffusion, PROBIT analysis, E. coli J5 (rough)
Method in brief: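 Wells received 5 or 10 μL of BPI fragment, pre-incubated 3 h at 37 °C. The underlayer agarose carried washed log-phase organisms at 4×10^6 CFU/mL.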

[3] = tested on: E. coli 0111:B4 (smooth) bacteria; test: Radial diffusion bactericidal assay, E. coli 0111:B4; assay type: cell-based; settings: radial diffusion; PROBIT analysis; E. coli O111:B4 (smooth)
Candida albicans = assay type: cell-based
C. albicans = test: Radial diffusion fungicidal assay, Candida albicans; assay type: cell-based; settings: radial diffusion
[4] = alanine variant relative to BPI.2
[5] = alanine variant relative to BPI.13

| Molecule | LAL (relative difference) (E. coli 0113 LPS; [4]) | Heparin Capacity [1] [ng] | Kd [1] [nM] | pmol added to well to achieve a 30 mm^2 bactericidal zone, E. coli J5 [2] | pmol added to well to achieve a 30 mm^2 bactericidal zone, E. coli O111:B4 [3] | also measured |
| --- | --- | --- | --- | --- | --- | --- |
| A1: Asp-N fragment of rBPI23, region 1-38 as printed in Table II (A1 A2 in Table I) (VNPGVVVRISQKGLDYASQQGTAALQKELKRIKIPDYS; Asp-N fragment; UniProt P17213 32-69, looked up, fragment) |  |  |  |  |  | amount required to inhibit the LAL assay, fold higher than 116-193 fragment / rBPI23 (E. coli 0113 LPS): 10 fold; cpm ^3H-Heparin bound [1]: 17,002 ± 479 cpm |
| A4: Asp-N fragment of rBPI23, residues 57-104 (DIREFQLPSSQISMVPNVGLKFSISNANIKISGKWKAQKRFLKMSGNF; UniProt P17213 88-135, looked up, fragment) |  |  |  |  |  | amount required to inhibit the LAL assay, fold higher than 116-193 fragment / rBPI23 (E. coli 0113 LPS): 10 fold; cpm ^3H-Heparin bound [1]: 33,159 ± 1.095 cpm |
| AKISGKWKAQKRFLK [BPI.15] | = (no difference in the LAL assay) | 145.4 | 315 | 9,705.10 pmol | b (no detectable activity up to 5 μg/well) |  |
| IAISGKWKAQKRFLK [BPI.16] | = (no difference in the LAL assay) | 127.25 | 231 | 7,550.90 pmol | b (no detectable activity up to 5 μg/well) |  |
| IKASGKWKAQKRFLK [BPI.17] | ↓ (moderate) | 113.1 | 266 | 15,836.70 pmol | b (no detectable activity up to 5 μg/well) | LAL / LPS inhibition activity (in words) (E. coli 0113 LPS): moderate |
| IKIAGKWKAQKRFLK [BPI.18] | = (no difference in the LAL assay) | 156.6 | 381 | 7,128.50 pmol | b (no detectable activity up to 5 μg/well) |  |
| IKISAKWKAQKRFLK [BPI.19] | = (no difference in the LAL assay) | 203.6 | 266 | 2,187.80 pmol | b (no detectable activity up to 5 μg/well) | HEPCAP (x Fold change in activity) ([1]; relative to BPI.2): =1.0 x Fold |
| IKISGAWKAQKRFLK [BPI.20] | = (no difference in the LAL assay) | 203.6 | 485 | 3,451.40 pmol | b (no detectable activity up to 5 μg/well) | HEPCAP (x Fold change in activity) ([1]; relative to BPI.2): =1.0 x Fold |
| IKISGKAKAQKRFLK [BPI.21] |  | 50.9 | 231 | 27,647.60 pmol | b (no detectable activity up to 5 μg/well) | LAL / LPS inhibition activity (in words) (E. coli 0113 LPS): large decrease in activity; heparin binding capacity, fold lower than the unsubstituted peptide [1]: 4 fold; fold reduction in bactericidal activity in the radial diffusion assay ([2]; alanine variant vs unsubstituted peptide): more than 10 fold |
| IKISGKWAAQKRFLK [BPI.22] | = (no difference in the LAL assay) | 135.7 | 315 | 2,546.80 pmol | b (no detectable activity up to 5 μg/well) | RDA (x Fold change in activity) [2, 4]: =1.0 x Fold |
| IKISGKWKAQARFLK [BPI.24] | = (no difference in the LAL assay) | 427.6 | 165 | 654.60 pmol | 27,330.00 pmol | activity of position 95 substitution variants (in words) ([2]; activity not further specified): unexpected increase |
| IKISGKWKAQKAFLK [BPI.25] | = (no difference in the LAL assay) | 107.2 | 346 | 8,203.50 pmol | b (no detectable activity up to 5 μg/well) | heparin binding capacity, fold lower than the unsubstituted peptide [1]: ~2 fold; HEPKd (x Fold change in activity) ([1]; heparin binding affinity, relative to BPI.2): =1.0 x Fold |
| IKISGKWKAQKRALK [BPI.26] | = (no difference in the LAL assay) | 113.1 | 231 | 8,709.60 pmol | b (no detectable activity up to 5 μg/well) |  |
| IKISGKWKAQKRFAK [BPI.27] | = (no difference in the LAL assay) | 119.8 | 204 | 5,754.40 pmol | b (no detectable activity up to 5 μg/well) |  |
| IKISGKWKAQKRFLA [BPI.28] | = (no difference in the LAL assay) | 156.6 | 266 | 6,194.40 pmol | b (no detectable activity up to 5 μg/well) |  |
| KSKVGWLIQLFHKA [BPI.44] |  | 335.6 | 579 | 480.80 pmol |  | LAL (relative difference) (E. coli 0113 LPS; [5]): = (no difference in the LAL assay); MIC C. alb (Candida albicans): 6.25 µg/mL; MIC (x Fold change in fungicidal activity) (Candida albicans; [5]): =; C. albicans: pmol required for 30 mm^2 zone (C. albicans): 577.65 pmol |
| B1 |  |  |  |  |  | IC50 relative to intact rBPI23 (fold higher) (E. coli 0113 LPS): approximately 10 fold; IC50 (E. coli 0113 LPS; read-out: IC50 of inhibition of the LPS-induced LAL reaction): ~100 nM; cpm ^3H-Heparin bound [1]: 82,918 ± 4,462 cpm |
| B2 |  |  |  |  |  | LAL / LPS inhibition activity (in words) (E. coli 0113 LPS): LAL inhibitory activity similar to intact rBPI23; concentration giving complete inhibition of the LPS-induced LAL reaction (E. coli 0113 LPS): 15 nM; cpm ^3H-Heparin bound [1]: 13,419 ± 309 cpm |
